pIC50: −log10 of the molar value. Bounds are passed on as bounds.

By pIC50 is commonly meant the negative decadic logarithm of the IC50, by convention in mol/L. Low readings indicate a high IC50, high ones a low IC50.

Test [1] concerns the target purified human farnesyl protein transferase (Homo sapiens, UniProt P49354+P49356). The experiment in a line: FPT IC50 Assay. Particulars: transfer of [3H] farnesyl to biotinylated H-ras peptide (biotin-CVLS), 37° C., 60 minutes. The class given is biochemical. How it is done:
FPT activity was determined by measuring the transfer of [^3H] farnesyl from [^3H] farnesyl pyrophosphate to a biotinylated peptide derived from the C-terminus of H-ras (biotin-CVLS). The reaction mixture contains: 50 mM Tris pH7.7, 5 mM MgCl2, 5 μM Zn^++, 5 mM DTT, 0.1% Triton-X, 0.05 μM peptide, 0.03 nM purified human farnesyl protein transferase, 0.180 μM [^3H] farnesyl pyrophosphate, plus the indicated concentration of tricyclic compound or vehicle control in a total volume of 100 μl. The reaction was incubated in a Vortemp shaking incubator at 37° C., 45 RPM for 60 minutes and stopped with 150 μl of 0.25 M EDTA containing 0.5% BSA and 1.3 mg/ml Streptavidin SPA beads. Radioactivity was measured in a Wallach 1450 Microbeta liquid scintillation counter. Percent inhibition was calculated relative to the vehicle control.

Another test deals with Human tumor cells. The experiment in a line: Soft Agar Assay (anchorage-independent growth). The class given is cell-based. Particulars: colony outgrowth in 0.3% agarose, 10-16 days, MTT staining. How it is done:
Anchorage-independent growth is a characteristic of tumorigenic cell lines. Human tumor cells can be suspended in growth medium containing 0.3% agarose and an indicated concentration of a farnesyl transferase inhibitor. The solution can be overlayed onto growth medium solidified with 0.6% agarose containing the same concentration of farnesyl transferase inhibitor as the top layer. After the top layer is solidified, plates can be incubated for 10-16 days at 37° C. under 5% CO2 to allow colony outgrowth. After incubation, the colonies can be stained by overlaying the agar with a solution of MTT (3-[4,5-dimethyl-thiazol-2-yl]-2,5-diphenyltetrazolium bromide, Thiazolyl blue) (1 mg/mL in PBS). Colonies can be counted and the IC50's can be determined.

In test [1], `Cc1cn(C[C@@H]2CCCN(C(=O)[C@H]3CN([C@@H]4c5ccc(Cl)cc5OCc5cccnc54)CCN3C(=O)OC3CCCCC3)C2)cn1` [Example 11] showed a pIC50 of 9.80.
For the compound `Cc1cn(C[C@@H]2CCCN(C(=O)[C@@H]3CN([C@H]4c5ccc(Cl)cc5OCc5cccnc54)CCN3C(=O)OC(C)(C)C)C2)cn1` [Example 4], the results for the negative logarithm of the IC50 (pIC50) (in test [1]; in the test with Human tumor cells) were 9.92 and > 8.30, respectively.
The corresponding values for `Cc1cn(CCCN(Cc2ccccc2)C(=O)[C@H]2CN([C@H]3c4ccc(Cl)cc4OCc4cccnc43)CCN2C(=O)OC(C)(C)C)cn1` [Example 1] are 8.52 and 7.55.

The record behind these values is patent US7585864B2, “Farnesyl protein transferase inhibitors and their use to treat cancer” (Schering Corporation, priority 2004, dated 2009).
